Measurements taken from US10179816B2, “Pharmaceutical compositions comprising an antibody which binds the human anti-Müllerian hormone receptor type II” (LABORATOIRE FRANCAIS DU FRACTIONNEMENT DES BIOTECHNOLOGIES, priority 2011, dated 2019).
Values joined by “and” are separate entries in the source; they are usually repeats but may differ in a detail not shown here. Equal entries are not always repeated. “Also recorded” adds a separate entry of the source.

How the values were obtained:
[1] = system: Cov434-AMHRII Asc1a5 (cell line of human ovarian cancer transfected with cDNA AMHRII); assay: Anti-tumour activity of 3C23K alone or with carboplatin in Cov434-AMHRII Asc1a5 xenograft (tumour volume, T/C ratio, statistical analysis); type: in vivo, female Swiss nude mouse
Method: The 3C23K antibody was evaluated according to the following scheme: 2 times per week for 6 weeks, for a total of 12 injections at about 10 mg/kg/injection, said administration regimen being designated below as “Q3-4D12”. Another group of mice was treated with an irrelevant antibody LFB-R565, administered at about 10 mg/kg/injection, according to the regimen Q3-4D12.
Carboplatin was evaluated, at a sub-optimum dose, i.e. about 60 mg/kg/injection, according to the following scheme: once a week, for 4 weeks, said administration regimen being designated below as “Q7D4”.
Carboplatin was also evaluated in combination with the 3C23K antibody or with the irrelevant antibody LFB-R565. Carboplatin was administered at about 60 mg/kg/injection according to the Q7D4 regimen and the 3C23K antibody or the irrelevant antibody LFB-R565 at about 10 mg/kg/injection according to the regimen Q3-4D12.
The mice were randomized on D11, when the volume of the tumours was between 50 and 158 mm^3, and the treatments began on D13 (9 mice per group).
The tumours were usually measured twice weekly.
The curves of the individual volume of the tumours were plotted.
In one experiment with 9 mice per group, the curves and analyses were therefore stopped when fewer than 8 values per group had been obtained (8 mice alive).
A Kruskal-Wallis test was also carried out.

[2] = molecular target: T1, human anti-Müllerian hormone type II receptor (AMHR-II) (Homo sapiens, UniProt Q16671); details: compared with unmutated humanized and chimeric 12G4; cited from earlier work
T1 sequence (Q16671 18-573): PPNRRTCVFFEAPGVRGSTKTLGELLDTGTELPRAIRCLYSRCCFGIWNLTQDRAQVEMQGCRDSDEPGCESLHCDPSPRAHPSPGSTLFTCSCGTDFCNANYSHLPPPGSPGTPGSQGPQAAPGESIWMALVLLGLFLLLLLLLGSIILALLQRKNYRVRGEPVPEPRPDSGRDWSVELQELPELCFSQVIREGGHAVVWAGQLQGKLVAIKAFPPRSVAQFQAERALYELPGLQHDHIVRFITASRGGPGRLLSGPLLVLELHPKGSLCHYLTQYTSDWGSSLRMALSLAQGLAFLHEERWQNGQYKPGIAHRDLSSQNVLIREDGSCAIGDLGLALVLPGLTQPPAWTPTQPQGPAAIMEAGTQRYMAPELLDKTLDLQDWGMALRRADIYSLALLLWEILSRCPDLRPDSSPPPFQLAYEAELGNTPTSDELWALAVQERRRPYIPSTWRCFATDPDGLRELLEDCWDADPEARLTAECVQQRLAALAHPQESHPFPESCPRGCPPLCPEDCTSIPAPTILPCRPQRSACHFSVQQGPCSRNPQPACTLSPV

[3] = D11, randomization, before treatment

In the case of “3C23K: mutated humanized 12G4 monoclonal antibody binding AMHR-II, produced by the 3C23K clone; light chain SEQ ID NO: 11, heavy chain SEQ ID NO: 13”, the Individual tumour volume [1, 3] is reported as 98 mm^3 and 90 mm^3 and 61 mm^3 and 80 mm^3 and 57 mm^3 and 147 mm^3 and 113 mm^3 and 72 mm^3, the Mean tumour volume [1, 3] is reported as 88 mm^3 and the Median tumour volume [1, 3] is reported as 80 mm^3. For the same substance, the Individual tumour volume ([1]; D14) was 104 mm^3 and 179 mm^3 and 60 mm^3 and 72 mm^3 and 67 mm^3 and 216 mm^3 and 166 mm^3 and 84 mm^3, the Mean tumour volume ([1]; D14) was 111 mm^3 and the Median tumour volume ([1]; D14) was 84 mm^3. The Individual tumour volume ([1]; D18) was 72 mm^3 (2×) and 88 mm^3 and 36 mm^3 and 21 mm^3 and 41 mm^3 and 140 mm^3 and 80 mm^3, the Mean tumour volume ([1]; D18) was 67 mm^3 and the Median tumour volume ([1]; D18) was 72 mm^3. For the same substance, the Individual tumour volume ([1]; D22) was 60 mm^3 and 150 mm^3 and 30 mm^3 and 0 mm^3 and 36 mm^3 and 131 mm^3 and 77 mm^3 and 158 mm^3, the Mean tumour volume ([1]; D22) was 79 mm^3 and the Median tumour volume ([1]; D22) was 70 mm^3. For the same substance, the Individual tumour volume ([1]; D25) was 0 mm^3 (3×) and 126 mm^3 and 24 mm^3 and 180 mm^3 and 74 mm^3 and 216 mm^3, the Mean tumour volume ([1]; D25) was 79 mm^3 and the Median tumour volume ([1]; D25) was 74 mm^3. For the same substance, the Individual tumour volume ([1]; D29) was 0 mm^3 (2×) and 322 mm^3 and 27 mm^3 and 48 mm^3 and 225 mm^3 and 146 mm^3 and 385 mm^3, the Mean tumour volume ([1]; D29) was 151 mm^3 and the Median tumour volume ([1]; D29) was 146 mm^3. For the same substance, the Individual tumour volume ([1]; D32) was 0 mm^3 (2×) and 501 mm^3 and 27 mm^3 and 15 mm^3 and 275 mm^3 and 180 mm^3 and 644 mm^3, the Mean tumour volume ([1]; D32) was 221 mm^3 and the Median tumour volume ([1]; D32) was 180 mm^3. The Individual tumour volume ([1]; D36) was 0 mm^3 (3×) and 653 mm^3 and 87 mm^3 and 363 mm^3 and 182 mm^3 and 784 mm^3, the Mean tumour volume ([1]; D36) was 278 mm^3 and the Median tumour volume ([1]; D36) was 182 mm^3. The Individual tumour volume ([1]; D39) was 0 mm^3 (3×) and 784 mm^3 and 210 mm^3 and 315 mm^3 and 182 mm^3 and 1200 mm^3 and 546 mm^3, the Mean tumour volume ([1]; D39) was 360 mm^3 and the Median tumour volume ([1]; D39) was 210 mm^3. For the same substance, the Individual tumour volume ([1]; D43) was 0 mm^3 (3×) and 1171 mm^3 and 420 mm^3 and 631 mm^3 and 393 mm^3 and 1403 mm^3 and 731 mm^3, the Mean tumour volume ([1]; D43) was 528 mm^3 and the Median tumour volume ([1]; D43) was 420 mm^3. The Individual tumour volume ([1]; D46) was 0 mm^3 (3×) and 1683 mm^3 and 598 mm^3 and 504 mm^3 and 275 mm^3 and 1650 mm^3 and 518 mm^3, the Mean tumour volume ([1]; D46) was 581 mm^3 and the Median tumour volume ([1]; D46) was 504 mm^3. For the same substance, the Individual tumour volume ([1]; D49) was 0 mm^3 (3×) and 1870 mm^3 and 1188 mm^3 and 784 mm^3 and 655 mm^3 and 2646 mm^3 and 945 mm^3, the Mean tumour volume ([1]; D49) was 899 mm^3 and the Median tumour volume ([1]; D49) was 784 mm^3. The “Anti-tumour activity (in words)” value ([1]; carboplatin study, comparator as stated in the sentence) was “significant anti-tumour activity; also recorded: anti-tumour effect greater than carboplatin; also recorded: exerts anti-tumour activity”, the T/C ratio ([1]; relative to Control group, D11 (before treatment)) was 88% and the T/C ratio ([1]; relative to Control group, D14) was 52%. For the same substance, the T/C ratio ([1]; relative to Control group, D18) was 33%, the T/C ratio ([1]; relative to Control group, D22) was 18% and the T/C ratio ([1]; relative to Control group, D25) was 17%. For the same substance, the T/C ratio ([1]; relative to Control group, D29) was 23%, the T/C ratio ([1]; relative to Control group, D32) was 18% and the T/C ratio ([1]; relative to Control group, D36) was 12%. For the same substance, the T/C ratio ([1]; relative to LFB-R565, after D18 up to D36) was “less than 26%”, the T/C ratio ([1]; relative to LFB-R565 group, D11 (before treatment)) was 99% and the T/C ratio ([1]; relative to LFB-R565 group, D14) was 55%. It also gave a T/C ratio ([1]; relative to LFB-R565 group, D18) of 41%, a T/C ratio ([1]; relative to LFB-R565 group, D22) of 26% and a T/C ratio ([1]; relative to LFB-R565 group, D25) of 18%. For the same substance, the T/C ratio ([1]; relative to LFB-R565 group, D29) was 21%, the T/C ratio ([1]; relative to LFB-R565 group, D32) was 26% and the T/C ratio ([1]; relative to LFB-R565 group, D36) was 10%. The T/C ratio ([1]; relative to carboplatin group, D11 (before treatment)) was 99%, the T/C ratio ([1]; relative to carboplatin group, D14) was 63% and the T/C ratio ([1]; relative to carboplatin group, D18) was 64%. It also gave a T/C ratio ([1]; relative to carboplatin group, D22) of 26%, a T/C ratio ([1]; relative to carboplatin group, D25) of 31% and a T/C ratio ([1]; relative to carboplatin group, D29) of 41%. The T/C ratio ([1]; relative to carboplatin group, D32) was 39%, the T/C ratio ([1]; relative to carboplatin group, D36) was 29% and the T/C ratio ([1]; relative to carboplatin group, D39) was 32%. For the same substance, the T/C ratio ([1]; relative to carboplatin group, D43) was 48%, the T/C ratio ([1]; relative to carboplatin group, from D22 to D39) was “less than 42%” and the T/C ratio ([1]; relative to control, after D18 (from D22) up to D36) was “less than 23%”. For the same substance, the “Affinity for AMHR-II (in words)” value [2] was “affinity far better than that of the unmutated humanized 12G4 antibody”.
